Earlier results on one molecule are cited in patent US20100093659A1, “POLYVALENT BIOCONJUGATES” (GLYKOS FINLAND OY, priority 2006, published 2010).

The data set deals with Helicobacter pylori. As to conditions: monomeric form.

Each structure is given as a SMILES string.

For the molecule `CC(=O)N[C@H]1[C@H]([C@H](O)[C@H](O)CO)O[C@@](O[C@H]2[C@@H](O)[C@@H](CO)O[C@@H](O[C@H]3[C@H](O)[C@@H](O)C(O)O[C@@H]3CO)[C@@H]2O)(C(=O)O)C[C@@H]1O` (stereo partly shown) [3′-sialyllactose], the “concentrations at which adhesion of Helicobacter pylori to gastrointestinal epithelial cells was inhibited” value is reported as “millimolar”.
